Reference: ChEMBL document CHEMBL5291721, “A preclinical secondary pharmacology resource illuminates target-adverse drug reaction associations of marketed drugs” (Nat Commun, 2023)

Experiments:
[1] = target: T1, Alpha-2A adrenergic receptor (Homo sapiens, UniProt P08913); type: functional, cell-based
T1 sequence (P08913 whole entry): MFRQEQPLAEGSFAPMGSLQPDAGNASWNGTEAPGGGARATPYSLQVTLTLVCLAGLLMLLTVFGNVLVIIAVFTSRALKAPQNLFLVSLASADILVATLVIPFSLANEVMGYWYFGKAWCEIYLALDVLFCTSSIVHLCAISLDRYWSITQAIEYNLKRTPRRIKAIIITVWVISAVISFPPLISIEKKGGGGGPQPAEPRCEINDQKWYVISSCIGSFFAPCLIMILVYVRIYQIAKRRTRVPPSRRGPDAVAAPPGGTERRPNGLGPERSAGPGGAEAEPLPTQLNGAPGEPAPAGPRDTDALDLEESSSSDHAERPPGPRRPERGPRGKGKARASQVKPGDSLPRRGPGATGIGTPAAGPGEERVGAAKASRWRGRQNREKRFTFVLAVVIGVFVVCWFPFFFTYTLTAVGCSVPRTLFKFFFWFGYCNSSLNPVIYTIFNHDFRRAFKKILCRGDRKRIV

[2] = target: Gamma-aminobutyric acid receptor subunit alpha-1 (Rattus norvegicus, UniProt P62813)
Chain of Gamma-aminobutyric acid receptor subunit alpha-1 (P62813 whole entry): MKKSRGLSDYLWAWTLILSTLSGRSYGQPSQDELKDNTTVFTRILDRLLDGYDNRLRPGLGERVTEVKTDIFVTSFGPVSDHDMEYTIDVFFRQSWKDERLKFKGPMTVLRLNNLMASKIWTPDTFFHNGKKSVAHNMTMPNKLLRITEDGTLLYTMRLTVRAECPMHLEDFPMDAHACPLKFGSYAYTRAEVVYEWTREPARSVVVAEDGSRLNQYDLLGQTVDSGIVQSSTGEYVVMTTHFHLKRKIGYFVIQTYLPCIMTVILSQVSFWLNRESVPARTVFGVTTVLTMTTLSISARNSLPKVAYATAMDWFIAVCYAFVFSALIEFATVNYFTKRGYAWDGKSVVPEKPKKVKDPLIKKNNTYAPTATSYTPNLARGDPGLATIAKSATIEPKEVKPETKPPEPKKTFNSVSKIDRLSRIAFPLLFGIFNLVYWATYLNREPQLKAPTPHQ

[3] = target: Histamine H2 receptor (Homo sapiens, UniProt P25021); type: functional, cell-based
Chain of Histamine H2 receptor (P25021 whole entry): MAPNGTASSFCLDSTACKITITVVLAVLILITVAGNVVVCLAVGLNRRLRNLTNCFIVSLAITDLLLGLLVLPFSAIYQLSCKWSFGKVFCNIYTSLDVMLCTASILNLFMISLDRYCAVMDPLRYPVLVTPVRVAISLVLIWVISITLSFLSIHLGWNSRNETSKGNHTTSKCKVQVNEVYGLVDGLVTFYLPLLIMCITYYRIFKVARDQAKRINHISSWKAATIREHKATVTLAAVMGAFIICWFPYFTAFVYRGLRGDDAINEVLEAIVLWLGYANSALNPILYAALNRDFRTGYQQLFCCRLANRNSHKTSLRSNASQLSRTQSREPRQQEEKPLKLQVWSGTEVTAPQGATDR

[4] = target: 5-hydroxytryptamine receptor 2B (Homo sapiens, UniProt P41595); type: functional, cell-based
Chain of 5-hydroxytryptamine receptor 2B (P41595 whole entry): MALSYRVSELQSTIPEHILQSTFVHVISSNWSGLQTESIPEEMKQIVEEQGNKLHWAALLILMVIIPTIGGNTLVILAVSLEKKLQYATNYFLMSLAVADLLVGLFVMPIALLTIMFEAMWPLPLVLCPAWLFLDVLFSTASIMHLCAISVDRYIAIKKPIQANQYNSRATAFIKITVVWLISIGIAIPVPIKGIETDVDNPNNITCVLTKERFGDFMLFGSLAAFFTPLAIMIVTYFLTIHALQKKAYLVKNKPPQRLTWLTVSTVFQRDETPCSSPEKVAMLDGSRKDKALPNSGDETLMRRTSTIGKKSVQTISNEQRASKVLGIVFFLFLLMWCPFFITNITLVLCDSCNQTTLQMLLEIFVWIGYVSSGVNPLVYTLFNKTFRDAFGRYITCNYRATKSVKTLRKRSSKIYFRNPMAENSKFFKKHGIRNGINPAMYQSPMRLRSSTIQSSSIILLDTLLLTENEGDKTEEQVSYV

[5] = target: D(3) dopamine receptor (Homo sapiens, UniProt P35462)
Chain of D(3) dopamine receptor (P35462 whole entry): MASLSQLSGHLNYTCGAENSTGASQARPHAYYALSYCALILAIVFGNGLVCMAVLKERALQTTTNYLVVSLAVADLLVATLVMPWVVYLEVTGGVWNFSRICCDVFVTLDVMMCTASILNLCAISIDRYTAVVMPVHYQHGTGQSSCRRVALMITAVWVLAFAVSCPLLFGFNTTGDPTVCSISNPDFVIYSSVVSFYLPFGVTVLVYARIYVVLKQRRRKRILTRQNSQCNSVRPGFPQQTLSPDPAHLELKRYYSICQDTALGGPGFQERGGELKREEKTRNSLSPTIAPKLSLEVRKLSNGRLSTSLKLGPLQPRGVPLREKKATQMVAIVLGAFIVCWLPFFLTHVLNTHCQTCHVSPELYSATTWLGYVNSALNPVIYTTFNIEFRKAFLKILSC

[6] = target: Adenosine receptor A2a (Homo sapiens, UniProt P29274)
Chain of Adenosine receptor A2a (P29274 whole entry): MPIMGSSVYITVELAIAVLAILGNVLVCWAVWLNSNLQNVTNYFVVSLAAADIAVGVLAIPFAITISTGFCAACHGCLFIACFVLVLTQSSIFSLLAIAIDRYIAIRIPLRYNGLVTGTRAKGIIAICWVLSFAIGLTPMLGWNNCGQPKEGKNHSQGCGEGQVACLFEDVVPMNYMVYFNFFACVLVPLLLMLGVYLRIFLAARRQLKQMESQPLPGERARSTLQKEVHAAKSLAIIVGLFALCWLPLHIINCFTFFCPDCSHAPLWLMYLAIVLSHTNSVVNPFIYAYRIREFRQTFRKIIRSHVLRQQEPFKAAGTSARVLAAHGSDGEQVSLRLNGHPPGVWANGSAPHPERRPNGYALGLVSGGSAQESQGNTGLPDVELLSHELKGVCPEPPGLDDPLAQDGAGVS

[7] = target: T2, Cholecystokinin receptor type A (Homo sapiens, UniProt P32238)
T2 sequence (P32238 whole entry): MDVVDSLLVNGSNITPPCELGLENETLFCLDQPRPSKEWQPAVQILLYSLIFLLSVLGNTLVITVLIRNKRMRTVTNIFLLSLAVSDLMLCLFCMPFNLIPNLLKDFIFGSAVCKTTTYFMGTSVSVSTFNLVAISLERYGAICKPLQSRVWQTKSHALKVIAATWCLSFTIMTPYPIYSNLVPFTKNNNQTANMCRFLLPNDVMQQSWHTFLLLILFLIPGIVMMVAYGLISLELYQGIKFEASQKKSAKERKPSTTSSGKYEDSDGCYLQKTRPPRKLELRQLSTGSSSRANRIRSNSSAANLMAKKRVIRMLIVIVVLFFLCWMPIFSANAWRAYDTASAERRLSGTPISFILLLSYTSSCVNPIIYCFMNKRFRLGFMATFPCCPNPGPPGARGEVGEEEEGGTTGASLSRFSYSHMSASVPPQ

[8] = target: Motilin receptor (Homo sapiens, UniProt O43193)
Chain of Motilin receptor (O43193 whole entry): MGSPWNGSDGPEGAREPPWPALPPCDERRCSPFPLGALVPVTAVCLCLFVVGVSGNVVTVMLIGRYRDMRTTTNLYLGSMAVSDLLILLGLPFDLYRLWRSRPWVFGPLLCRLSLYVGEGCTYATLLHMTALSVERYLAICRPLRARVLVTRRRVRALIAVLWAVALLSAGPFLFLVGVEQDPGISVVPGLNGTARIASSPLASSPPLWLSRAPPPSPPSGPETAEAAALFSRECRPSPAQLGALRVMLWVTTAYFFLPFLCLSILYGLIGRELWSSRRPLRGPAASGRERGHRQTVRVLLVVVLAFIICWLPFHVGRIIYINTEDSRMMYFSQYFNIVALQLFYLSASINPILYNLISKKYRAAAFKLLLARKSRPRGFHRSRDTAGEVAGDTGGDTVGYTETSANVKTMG

[9] = target: T3, Neuropeptide Y receptor type 1 (Homo sapiens, UniProt P25929)
T3 sequence (P25929 whole entry): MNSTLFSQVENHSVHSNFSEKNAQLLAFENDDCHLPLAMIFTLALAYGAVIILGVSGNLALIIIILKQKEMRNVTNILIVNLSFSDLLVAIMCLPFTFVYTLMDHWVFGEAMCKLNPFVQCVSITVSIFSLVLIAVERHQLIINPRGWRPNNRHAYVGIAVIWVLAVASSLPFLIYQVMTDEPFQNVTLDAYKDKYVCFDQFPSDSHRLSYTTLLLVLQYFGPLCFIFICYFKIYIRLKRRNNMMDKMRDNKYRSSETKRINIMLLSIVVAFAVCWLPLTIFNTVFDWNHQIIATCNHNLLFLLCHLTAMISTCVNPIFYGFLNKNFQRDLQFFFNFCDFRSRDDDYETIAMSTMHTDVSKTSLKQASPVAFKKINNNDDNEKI

[10] = target: Histamine H3 receptor (Homo sapiens, UniProt Q9Y5N1)
Chain of Histamine H3 receptor (Q9Y5N1 whole entry): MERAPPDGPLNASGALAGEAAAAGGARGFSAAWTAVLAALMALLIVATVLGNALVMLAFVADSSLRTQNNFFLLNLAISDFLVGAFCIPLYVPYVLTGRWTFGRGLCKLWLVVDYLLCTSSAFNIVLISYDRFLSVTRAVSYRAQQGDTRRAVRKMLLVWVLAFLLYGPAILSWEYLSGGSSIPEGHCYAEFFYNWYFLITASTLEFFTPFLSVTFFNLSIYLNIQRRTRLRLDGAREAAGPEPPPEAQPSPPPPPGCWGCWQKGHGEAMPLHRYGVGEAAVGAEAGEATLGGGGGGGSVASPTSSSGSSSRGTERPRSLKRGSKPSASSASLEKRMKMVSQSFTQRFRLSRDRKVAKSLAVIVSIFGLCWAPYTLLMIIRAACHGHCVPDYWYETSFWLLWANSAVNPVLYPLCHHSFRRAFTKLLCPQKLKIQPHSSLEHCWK

[11] = target: T4, Adenosine receptor A1 (Homo sapiens, UniProt P30542)
T4 sequence (P30542 whole entry): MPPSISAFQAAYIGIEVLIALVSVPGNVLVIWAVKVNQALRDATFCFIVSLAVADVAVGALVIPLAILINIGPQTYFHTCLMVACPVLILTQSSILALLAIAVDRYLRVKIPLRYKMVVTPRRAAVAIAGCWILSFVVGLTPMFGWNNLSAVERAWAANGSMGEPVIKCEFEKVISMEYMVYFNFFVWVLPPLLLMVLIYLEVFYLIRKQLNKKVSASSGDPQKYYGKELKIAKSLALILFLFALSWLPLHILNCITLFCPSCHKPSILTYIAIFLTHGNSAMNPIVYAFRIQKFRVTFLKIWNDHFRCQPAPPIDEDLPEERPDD

[12] = target: Beta-1 adrenergic receptor (Homo sapiens, UniProt P08588); type: functional
Chain of Beta-1 adrenergic receptor (P08588 whole entry): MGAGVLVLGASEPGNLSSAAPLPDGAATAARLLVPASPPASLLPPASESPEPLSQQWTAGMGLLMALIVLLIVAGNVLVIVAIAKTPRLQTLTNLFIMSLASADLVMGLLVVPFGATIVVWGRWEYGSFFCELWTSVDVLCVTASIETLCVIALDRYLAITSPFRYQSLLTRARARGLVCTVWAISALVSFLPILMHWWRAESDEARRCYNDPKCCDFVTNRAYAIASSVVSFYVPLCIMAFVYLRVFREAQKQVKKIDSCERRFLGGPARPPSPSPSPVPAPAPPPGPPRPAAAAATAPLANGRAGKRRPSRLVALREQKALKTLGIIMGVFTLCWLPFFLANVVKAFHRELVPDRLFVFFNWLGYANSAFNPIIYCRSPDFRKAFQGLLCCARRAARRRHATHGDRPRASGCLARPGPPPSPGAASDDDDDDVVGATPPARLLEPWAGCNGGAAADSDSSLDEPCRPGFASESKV

[13] = target: Beta-2 adrenergic receptor (Homo sapiens, UniProt P07550)
Chain of Beta-2 adrenergic receptor (P07550 whole entry): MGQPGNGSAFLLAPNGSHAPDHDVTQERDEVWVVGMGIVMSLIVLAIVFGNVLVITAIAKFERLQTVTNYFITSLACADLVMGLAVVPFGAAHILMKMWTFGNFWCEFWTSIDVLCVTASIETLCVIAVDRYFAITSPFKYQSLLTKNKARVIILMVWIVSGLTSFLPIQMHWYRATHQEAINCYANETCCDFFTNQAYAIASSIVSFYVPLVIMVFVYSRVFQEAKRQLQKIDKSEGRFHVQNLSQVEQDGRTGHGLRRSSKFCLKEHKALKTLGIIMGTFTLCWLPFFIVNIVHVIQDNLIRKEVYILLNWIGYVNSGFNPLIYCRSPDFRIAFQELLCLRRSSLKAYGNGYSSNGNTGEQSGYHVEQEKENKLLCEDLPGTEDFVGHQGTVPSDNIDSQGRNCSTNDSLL
Note: assay procedure not described here.

## CO[C@H]1C[C@H](O[C@H]2CC[C@@]3(C)[C@H](CC[C@@H]4[C@@H]3CC[C@]3(C)[C@@H](C5=CC(=O)OC5)[C@@H](OC(C)=O)C[C@]43O)C2)O[C@@H](C)[C@@H]1O [OLEANDRIN]
[1]
  AC50: > 30 µM
[2]
  AC50: > 30 µM
[3]
  AC50: > 30 µM
[4]
  AC50: > 30 µM
[5]
  AC50: > 30 µM

## O=c1c(O)c(-c2ccc(O)c(O)c2)oc2cc(O)cc(O)c12 [QUERCETIN]
[6]
  AC50: > 30 µM
[1]
  AC50: > 10 µM
[7]
  AC50: > 30 µM
[3]
  AC50: > 30 µM
[4]
  AC50: > 30 µM
[8]
  AC50: > 10 µM
[9]
  AC50: > 30 µM
[5]
  AC50: > 30 µM
[10]
  AC50: > 10 µM

## CCC(=O)O[C@](Cc1ccccc1)(c1ccccc1)[C@H](C)CN(C)C [PROPOXYPHENE]
[11]
  AC50: > 30 µM
[6]
  AC50: > 30 µM
[1]
  AC50: > 10 µM
[12]
  AC50: > 10 µM
[13]
  AC50: > 10 µM
[7]
  AC50: > 30 µM
[2]
  AC50: > 10 µM
[3]
  AC50: > 10 µM
[4]
  AC50: > 10 µM
[8]
  AC50: > 10 µM
[9]
  AC50: > 30 µM
[5]
  AC50: > 10 µM
[10]
  AC50: > 10 µM

## CCOC(=O)c1ncn2c1CN(C)C(=O)c1cc(F)ccc1-2 [FLUMAZENIL]
[11]
  AC50: > 30 µM
[6]
  AC50: > 30 µM
[1]
  AC50: > 30 µM
[12]
  AC50: > 30 µM
[13]
  AC50: > 30 µM
[7]
  AC50: > 30 µM
[3]
  AC50: > 30 µM
[4]
  AC50: > 30 µM
[8]
  AC50: > 30 µM
[9]
  AC50: > 30 µM
[5]
  AC50: > 30 µM
[10]
  AC50: > 30 µM

## CC1=C(/C=C/C(C)=C/C=C/C(C)=C/CO)C(C)(C)CCC1 [RETINOL]
[11]
  AC50: > 10 µM
[6]
  AC50: > 10 µM
[1]
  AC50: > 10 µM
[12]
  AC50: > 10 µM
[13]
  AC50: > 10 µM
[7]
  AC50: > 10 µM
[2]
  AC50: > 10 µM
[3]
  AC50: > 10 µM
[4]
  AC50: > 10 µM
[8]
  AC50: > 10 µM
[9]
  AC50: > 10 µM
[5]
  AC50: > 30 µM

## Cc1cc(=O)n(-c2ccccc2)n1C [ANTIPYRINE]
[11]
  AC50: > 30 µM
[6]
  AC50: > 30 µM
[1]
  AC50: > 10 µM
[12]
  AC50: > 10 µM
[13]
  AC50: > 10 µM
[7]
  AC50: > 30 µM
[2]
  AC50: > 10 µM
[3]
  AC50: > 10 µM
[4]
  AC50: > 10 µM
[8]
  AC50: > 10 µM
[9]
  AC50: > 30 µM
[5]
  AC50: > 10 µM
[10]
  AC50: > 10 µM

## Oc1ccc(CCNCCCCCCNCCc2ccccc2)cc1O [DOPEXAMINE]
[11]
  AC50: > 30 µM
[6]
  AC50: > 30 µM
[1]
  AC50: > 30 µM
[12]
  AC50: > 30 µM
[13]
  AC50: 3.8 µM
[7]
  AC50: > 30 µM
[2]
  AC50: > 30 µM
[3]
  AC50: > 30 µM
[4]
  AC50: > 30 µM
[8]
  AC50: > 30 µM
[9]
  AC50: > 30 µM
[5]
  AC50: 0.16 µM
[10]
  AC50: 11 µM

## CC(C)[C@@H](C)/C=C/[C@@H](C)[C@H]1CC[C@H]2/C(=C/C=C3\C[C@@H](O)CC[C@@H]3C)CCC[C@]12C [DIHYDROTACHYSTEROL]
[11]
  AC50: > 10 µM
[6]
  AC50: > 10 µM
[1]
  AC50: > 10 µM
[12]
  AC50: > 10 µM
[13]
  AC50: > 10 µM
[7]
  AC50: > 10 µM
[2]
  AC50: > 10 µM
[3]
  AC50: > 10 µM
[4]
  AC50: > 10 µM
[8]
  AC50: > 10 µM
[9]
  AC50: > 10 µM
[5]
  AC50: > 30 µM

## CCCN1CCCC[C@H]1C(=O)Nc1c(C)cccc1C [ROPIVACAINE]
[11]
  AC50: > 30 µM
[6]
  AC50: > 30 µM
[1]
  AC50: > 30 µM
[12]
  AC50: > 30 µM
[13]
  AC50: > 30 µM
[7]
  AC50: > 30 µM
[2]
  AC50: > 30 µM
[3]
  AC50: > 30 µM
[4]
  AC50: > 30 µM
[8]
  AC50: > 30 µM
[9]
  AC50: > 30 µM
[5]
  AC50: > 30 µM
[10]
  AC50: > 30 µM

## Oc1cc(O)c(Cl)cn1
[11]
  AC50: > 30 µM
[6]
  AC50: > 30 µM
[1]
  AC50: > 30 µM
[12]
  AC50: > 30 µM
[13]
  AC50: > 30 µM
[7]
  AC50: > 30 µM
[2]
  AC50: > 30 µM
[3]
  AC50: > 30 µM
[4]
  AC50: > 30 µM
[8]
  AC50: > 30 µM
[9]
  AC50: > 30 µM
[5]
  AC50: > 30 µM
[10]
  AC50: > 30 µM

## CC(C)NC[C@H](O)COc1ccc(CC(N)=O)cc1 [ESATENOLOL]
[11]
  AC50: > 30 µM
[6]
  AC50: > 30 µM
[1]
  AC50: > 10 µM
[7]
  AC50: > 30 µM
[3]
  AC50: > 10 µM
[8]
  AC50: > 10 µM
[9]
  AC50: > 30 µM
[5]
  AC50: > 10 µM

## O=C(O)c1ccc(NC(=O)[C@H](Cc2ccc(O)cc2)NC(=O)c2ccccc2)cc1 [BENTIROMIDE]
[11]
  AC50: > 10 µM
[6]
  AC50: > 10 µM
[1]
  AC50: > 10 µM
[12]
  AC50: > 10 µM
[13]
  AC50: > 10 µM
[7]
  AC50: > 10 µM
[2]
  AC50: > 10 µM
[3]
  AC50: > 10 µM
[4]
  AC50: > 10 µM
[8]
  AC50: > 10 µM
[9]
  AC50: > 10 µM
[5]
  AC50: > 30 µM

## CCCCCCCC(=O)CC[C@@H]1[C@@H](C/C=C\CCCC(=O)OC(C)C)[C@@H](O)C[C@H]1O [UNOPROSTONE ISOPROPYL]
[4]
  AC50: 0.89 µM
[5]
  AC50: > 30 µM

## C[C@@H]1C[C@H]2[C@@H]3CCC4=CC(=O)C=C[C@]4(C)[C@@]3(F)[C@@H](O)C[C@]2(C)[C@@]1(O)C(=O)CO [DEXAMETHASONE]
[11]
  AC50: > 30 µM
[6]
  AC50: > 30 µM
[1]
  AC50: > 10 µM
[12]
  AC50: > 30 µM
[13]
  AC50: > 30 µM
[7]
  AC50: > 30 µM
[2]
  AC50: > 10 µM
[3]
  AC50: > 30 µM
[4]
  AC50: > 10 µM
[8]
  AC50: > 30 µM
[9]
  AC50: > 30 µM
[5]
  AC50: > 30 µM
[10]
  AC50: > 30 µM

## CCC1(CCC(C)C)C(=O)NC(=O)NC1=O [AMOBARBITAL]
[11]
  AC50: > 10 µM
[6]
  AC50: > 10 µM
[1]
  AC50: > 10 µM
[12]
  AC50: > 10 µM
[13]
  AC50: > 10 µM
[7]
  AC50: > 10 µM
[2]
  AC50: > 10 µM
[3]
  AC50: > 10 µM
[4]
  AC50: > 10 µM
[8]
  AC50: > 10 µM
[9]
  AC50: > 10 µM
[5]
  AC50: > 30 µM
